# Measurements as given in PMC9652372, “Glycolytic flux control by drugging phosphoglycolate phosphatase” (Nature Communications, 2022).
# Values joined by “and” are separate entries in the source; they are usually repeats but may differ in a detail not shown here. Equal entries are not always repeated.
# Experiments:
# [1] = biological target: T1, PGP (Mus musculus, UniProt Q8CHP8); assay: Steady state kinetics of PG dephosphorylation in presence of CP1-3
# T1 sequence (Q8CHP8 1-321): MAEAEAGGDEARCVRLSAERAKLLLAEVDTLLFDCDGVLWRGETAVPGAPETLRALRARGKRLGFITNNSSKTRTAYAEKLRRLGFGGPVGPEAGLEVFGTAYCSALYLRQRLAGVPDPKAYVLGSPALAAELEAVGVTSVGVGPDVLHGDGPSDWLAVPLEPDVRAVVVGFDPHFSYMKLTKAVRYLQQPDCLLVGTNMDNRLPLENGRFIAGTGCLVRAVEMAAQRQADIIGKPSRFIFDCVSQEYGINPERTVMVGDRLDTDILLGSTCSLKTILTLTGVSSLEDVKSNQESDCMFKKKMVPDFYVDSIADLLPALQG
# [2] = biological target: T2, murine PGP (Mus musculus, UniProt Q8CHP8); assay: SAR: CP1, CP2 and analogs on PGP phosphatase activity (PG); type: biochemical; design: His6 (N, cleaved yes); made in house; host or cells: Escherichia coli BL21 (DE3), pETM11, co-expressed with groES-groEL-tig
# T2 sequence (Q8CHP8 1-321): T1 sequence (Q8CHP8 1-321)
# Procedure: However, the DMSO concentration was kept constant across each assay. For SAR experiments, all compound stocks were prepared at 10 mM in 100% DMSO. A constant final DMSO concentration of 0.4% was maintained under all conditions, and solvent control samples contained 0.4% DMSO without compounds.
# PGP phosphatase activity were assessed using recombinant, purified murine PGP and PG as a
# [3] = PG dephosphorylation, increasing CP concentrations
compound,measurement,setting,value
COc1ccc(C(=O)Nc2ccc(Cc3ccc(NC(=O)c4ccc(OC)c(OC)c4)c(C(=O)O)c3)cc2C(=O)O)cc1OC [CP2],PGP activity,"[1]; 1 µM CP2, PG 100 µM",4.865 µmol Pi/min/mg and 4.265 µmol Pi/min/mg and 4.986 µmol Pi/min/mg
same,PGP activity,"[1]; 1 µM CP2, PG 200 µM",9.31 µmol Pi/min/mg and 8.409 µmol Pi/min/mg and 9.7309 µmol Pi/min/mg
same,PGP activity,"[1]; 1 µM CP2, PG 300 µM",14.9605 µmol Pi/min/mg and 10.9951 µmol Pi/min/mg and 14.0593 µmol Pi/min/mg
same,PGP activity,"[1]; 1 µM CP2, PG 400 µM",18.0247 µmol Pi/min/mg and 16.763 µmol Pi/min/mg and 17.3037 µmol Pi/min/mg
same,PGP activity,"[1]; 1 µM CP2, PG 500 µM",19.8272 µmol Pi/min/mg and 20.5481 µmol Pi/min/mg and 19.4667 µmol Pi/min/mg
same,PGP activity,"[1]; 1 µM CP2, PG 600 µM",21.8099 µmol Pi/min/mg and 21.6296 µmol Pi/min/mg
same,PGP activity,"[1]; 1 µM CP2, PG 700 µM",22.7111 µmol Pi/min/mg and 24.1531 µmol Pi/min/mg and 23.6123 µmol Pi/min/mg
same,PGP activity,"[1]; 1 µM CP2, PG 800 µM",21.8099 µmol Pi/min/mg and 23.0716 µmol Pi/min/mg and 24.8741 µmol Pi/min/mg
same,PGP activity,"[1]; 2 µM CP2, PG 25 µM",0.7809 µmol Pi/min/mg and 0.7208 µmol Pi/min/mg and 0.9611 µmol Pi/min/mg
same,PGP activity,"[1]; 2 µM CP2, PG 50 µM",1.081 µmol Pi/min/mg and 1.682 µmol Pi/min/mg and 1.982 µmol Pi/min/mg
same,PGP activity,"[1]; 2 µM CP2, PG 100 µM",2.9433 µmol Pi/min/mg and 3.424 µmol Pi/min/mg and 3.784 µmol Pi/min/mg
same,PGP activity,"[1]; 2 µM CP2, PG 200 µM",6.247 µmol Pi/min/mg and 7.088 µmol Pi/min/mg and 7.028 µmol Pi/min/mg
same,PGP activity,"[1]; 2 µM CP2, PG 300 µM",7.39 µmol Pi/min/mg and 11.3555 µmol Pi/min/mg and 12.0765 µmol Pi/min/mg
same,PGP activity,"[1]; 2 µM CP2, PG 400 µM",12.7975 µmol Pi/min/mg and 13.6988 µmol Pi/min/mg and 14.4198 µmol Pi/min/mg
same,PGP activity,"[1]; 2 µM CP2, PG 500 µM",16.763 µmol Pi/min/mg and 16.4025 µmol Pi/min/mg
same,PGP activity,"[1]; 2 µM CP2, PG 600 µM",17.8444 µmol Pi/min/mg and 17.3037 µmol Pi/min/mg and 17.6642 µmol Pi/min/mg
same,PGP activity,"[1]; 2 µM CP2, PG 700 µM",19.2864 µmol Pi/min/mg and 19.1062 µmol Pi/min/mg
same,PGP activity,"[1]; 2 µM CP2, PG 800 µM",20.3679 µmol Pi/min/mg and 20.7284 µmol Pi/min/mg and 19.2864 µmol Pi/min/mg
same,PGP activity,"[1]; 4 µM CP2, PG 50 µM",1.502 µmol Pi/min/mg and 0.7809 µmol Pi/min/mg and 1.321 µmol Pi/min/mg
same,PGP activity,"[1]; 4 µM CP2, PG 100 µM",2.523 µmol Pi/min/mg and 1.742 µmol Pi/min/mg and 2.222 µmol Pi/min/mg
same,PGP activity,"[1]; 4 µM CP2, PG 200 µM",4.745 µmol Pi/min/mg and 4.565 µmol Pi/min/mg
same,PGP activity,"[1]; 4 µM CP2, PG 300 µM",8.4716 µmol Pi/min/mg and 6.669 µmol Pi/min/mg and 5.7679 µmol Pi/min/mg
same,PGP activity,"[1]; 4 µM CP2, PG 400 µM",10.8148 µmol Pi/min/mg and 9.012 µmol Pi/min/mg
same,PGP activity,"[1]; 4 µM CP2, PG 500 µM",11.1753 µmol Pi/min/mg and 11.8963 µmol Pi/min/mg and 10.8148 µmol Pi/min/mg
same,PGP activity,"[1]; 4 µM CP2, PG 600 µM",12.437 µmol Pi/min/mg and 12.9778 µmol Pi/min/mg
same,PGP activity,"[1]; 4 µM CP2, PG 700 µM",13.5185 µmol Pi/min/mg and 14.0593 µmol Pi/min/mg and 12.9778 µmol Pi/min/mg
same,PGP activity,"[1]; 4 µM CP2, PG 800 µM",13.3383 µmol Pi/min/mg and 13.879 µmol Pi/min/mg and 14.6 µmol Pi/min/mg
same,vmax,[1]; CP 1.0 µM,49.7 ± 4.0 µmol/min/mg
same,vmax,[1]; CP 2.0 µM,51.9 ± 5.9 µmol/min/mg
same,vmax,[1]; CP 4.0 µM,36.9 ± 4.8 µmol/min/mg
same,effect on vmax (reduction),[1]; [3],without affecting vmax
same,increase of KM,[1]; [3],~ 3 fold
same,inhibition of mPGP activity at 40 µM CP compared to DMSO control (%),"[2]; 40 µM CP, single experiments Exp #1-3",91.3408% and 89.3401% and 90.1099%
same,remaining activity at 16 µM,"[2]; CP log[M] -4.79588, read-out: mPGP activity in presence of CP relative to DMSO controls, mPGP on PG (norm.)",20.6%
same,remaining activity at 4 µM,"[2]; CP log[M] -5.39794, read-out: mPGP activity in presence of CP relative to DMSO controls, mPGP on PG (norm.)",34.3%
same,remaining activity at 2 µM,"[2]; CP log[M] -5.69897, read-out: mPGP activity in presence of CP relative to DMSO controls, mPGP on PG (norm.)",51.6%
same,remaining activity at 1 µM,"[2]; CP log[M] -6, read-out: mPGP activity in presence of CP relative to DMSO controls, mPGP on PG (norm.)",67.7%
same,remaining activity at 0.5 µM,"[2]; CP log[M] -6.30103, read-out: mPGP activity in presence of CP relative to DMSO controls, mPGP on PG (norm.)",69%
same,remaining activity at […],"[2]; CP log[M] -6.60206, read-out: mPGP activity in presence of CP relative to DMSO controls, mPGP on PG (norm.)",72.6%
same,remaining activity at 0.125 µM,"[2]; CP log[M] -6.90309, read-out: mPGP activity in presence of CP relative to DMSO controls, mPGP on PG (norm.)",81.8%
same,remaining activity at 0.0625 µM,"[2]; CP log[M] -7.20412, read-out: mPGP activity in presence of CP relative to DMSO controls, mPGP on PG (norm.)",84.3%
same,remaining activity at 0.015625 µM,"[2]; CP log[M] -7.80618, read-out: mPGP activity in presence of CP relative to DMSO controls, mPGP on PG (norm.)",96%
